In EP4707280A1, “1,4-CINEOLE DERIVATIVE AND INTERMEDIATE THEREOF, HERBICIDE CONTAINING SAID DERIVATIVE AS ACTIVE INGREDIENT, METHOD FOR USING HERBICIDE, AND METHOD FOR PREPARING AGROCHEMICAL COMPOSITION” (HOKKO CHEMICAL INDUSTRY CO., LTD., priority 2023, dated 2024):

Legend:
Format in all cases: in vivo
[1] = system: Echinochloa crus-galli var. formosensis; assay: Test Example 2: herbicidal effect test by application during growth period of paddy rice; conditions: 120 g per 10 ares, applied seven days after sowing, flooded pots, 14 days after application; for inhibition at 1200 g/ha: Echinochloa crus-galli, read-out: weed inhibition rate
Procedure, shortened: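 Weeds sown into puddled, flooded paddy soil received a post-emergence water application of emulsifiable concentrate at 120 g active ingredient per 10 ares, seven days after sowing. Herbicidal effect was rated 14 days later as inhibition (%).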

[2] = system: Echinochloa crus-galli var. formosensis; assay: Test Example 6: herbicidal effect test by application during growth period of paddy rice (low dose); conditions: Echinochloa crus-galli; 7.5 g per 10 ares; applied seven days after sowing, flooded pots; 14 days after application; read-out: weed inhibition rate
Method: (§1) The present test was conducted in duplicate for each chemical concentration group, and the weed inhibition rate (%) was determined 14 days after chemical application using the following formula (Math. 1). [formula]
(§2) Wagner pots with an area of […] were filled with paddy soil, followed by addition of water and incorporation of chemical fertilizer (N:P:K = 16:16:16), after which puddling was performed. After that, seeds of Echinochloa crus-galli var. formosensis, broad-leaved weeds (Monochoria vaginalis), and Scirpus juncoides were sown at a depth of 0 cm to 1 cm, 30 seeds each. Immediately after sowing, the pots were flooded and a water depth of approximately 3 cm was maintained. Subsequent management was conducted in a glass greenhouse. Seven days after sowing, an emulsifiable concentrate prepared according to Formulation Example 5 using the compound shown below was diluted with water, and a specified amount of the diluted solution was applied by dropper. The amount of the active ingredient to be applied was equivalent to 7.5 g per 10 ares. The test was conducted in duplicate for each chemical concentration group, and the herbicidal effect was evaluated 14 days after chemical application using the same criteria as in Test Example 1.

[3] = system: Echinochloa crus-galli; assay: Test Example 3: herbicidal effect test by soil application in upland field; conditions: 120 g per 10 ares, sprayed one day after sowing, 14 days after application; for inhibition at 1200 g/ha: Echinochloa crus-galli, read-out: weed inhibition rate
Procedure, shortened: (§3)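 Weed inhibition (%) was assessed 14 days after treatment, in duplicate per concentration group. Seeds had been mixed into the upper 1 cm of upland alluvial loam, and the soil surface was sprayed one day later with the diluted emulsifiable concentrate at 120 g active ingredient per 10 ares.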

[4] = system: Digitaria ciliaris; assay: as above; conditions: 120 g per 10 ares, sprayed one day after sowing, 14 days after application; for inhibition at 1200 g/ha: Digitaria ciliaris, read-out: weed inhibition rate
Procedure, shortened: as §3

[5] = system: Digitaria ciliaris; assay: Test Example 4: herbicidal effect test by stem and leaf treatment in upland field; conditions: 120 g per 10 ares, sprayed seven days after sowing, upland soil, 14 days after application; for inhibition at 1200 g/ha: Digitaria ciliaris, read-out: weed inhibition rate
[6] = system: Echinochloa crus-galli; assay: Test Example 8: herbicidal effect test by stem and leaf treatment in upland field (low dose); conditions: Echinochloa crus-galli; 7.5 g per 10 ares; sprayed seven days after sowing, upland soil; 14 days after application; read-out: weed inhibition rate
Method: as §1
(§4) Pots with an area of 36 cm^2 were filled with upland soil (alluvial loam), twenty seeds each of weeds of Digitaria ciliaris, and Echinochloa crus-galli were uniformly mixed with the top 1 cm layer of soil and the surface was lightly pressed down. Seven days after sowing, an emulsifiable concentrate prepared according to Formulation Example 5 using the compound shown below was diluted with water, and the diluted solution was sprayed onto the soil surface at a rate of 100 liters per 10 ares. The amount of the active ingredient to be applied was equivalent to 7.5 g per 10 ares. Fourteen days after chemical application, the herbicidal effect was evaluated according to the same criteria as in Test Example 1.

[7] = system: Digitaria ciliaris; assay: as above; conditions: 7.5 g per 10 ares, sprayed seven days after sowing, upland soil, 14 days after application; for inhibition at 75 g/ha: Digitaria ciliaris, read-out: weed inhibition rate
Method: as §1, §4

[8] = system: Echinochloa crus-galli; assay: Test Example 7: herbicidal effect test by soil application in upland field (low dose); conditions: Echinochloa crus-galli, 7.5 g per 10 ares, sprayed one day after sowing, 14 days after application, read-out: weed inhibition rate
Method: as §1
as §4, with “One day” for “Seven days”

[9] = system: Digitaria ciliaris; assay: as above; conditions: Digitaria ciliaris, 7.5 g per 10 ares, sprayed one day after sowing, 14 days after application, read-out: weed inhibition rate
Method: as §1
as §4, with “One day” for “Seven days”

[10] = system: Echinochloa crus-galli; assay: Test Example 4: herbicidal effect test by stem and leaf treatment in upland field; conditions: 120 g per 10 ares, sprayed seven days after sowing, upland soil, 14 days after application; for inhibition at 1200 g/ha: Echinochloa crus-galli, read-out: weed inhibition rate
[11] = system: Echinochloa crus-galli var. formosensis; assay: Test Example 1: herbicidal effect test by soil application in paddy rice; conditions: 120 g active ingredient per 10 ares, applied immediately after sowing, flooded pots, 14 days after application; for pest or weed control at 1200 g/ha: Echinochloa crus-galli, soil, 336 h, read-out: weed inhibition rate
Procedure, shortened: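 Pre-emergence paddy treatment: diluted emulsifiable concentrate applied by dropper at 120 g a.i./10 ares immediately after sowing. Seeds (30 per species, 0–1 cm deep) in fertilized, puddled paddy soil kept under ~3 cm flood in a glass greenhouse.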

[12] = system: Echinochloa crus-galli var. formosensis; assay: Test Example 5: herbicidal effect test by soil application in paddy rice (low dose); conditions: Echinochloa crus-galli, soil, 336 h; 7.5 g per 10 ares; applied immediately after sowing, flooded pots; 14 days after application; read-out: weed inhibition rate
Method: as §1
as §2, with “Immediately thereafter,” for “Seven days after sowing,”, “The test was conducted in duplicate for each chemical concentration group, and the herbicidal effect was evaluated 14 days after chemical application using the same criteria as in Test Example 1.” left out

CC(C)C12CC(OCc3c(F)cccc3Cl)C(C)(CC1Br)O2 (stereo not shown) [1-1381, 5-bromo-2-[(2-chloro-6-fluorophenyl)methoxy]-1-methyl-4-isopropyl-7-oxabicyclo[2.2.1]heptane]
≥ 80%: inhibition at 1200 g/ha [1] | inhibition at 75 g/ha [2] | inhibition at 1200 g/ha [3] | inhibition at 1200 g/ha [4] | inhibition at 1200 g/ha [5] | inhibition at 75 g/ha [6] | inhibition at 75 g/ha [7] | inhibition at 75 g/ha [8] | inhibition at 75 g/ha [9] | inhibition at 1200 g/ha [10] | pest or weed control at 1200 g/ha [11] | inhibition at 75 g/ha [12]

CCC[C@]1(O)C[C@]2(C)O[C@@]1(C(C)C)C[C@H]2OCc1ccccc1F [1-934, (1R,2S,4S,5R)-5-[(2-fluorophenyl)methoxy]-1-isopropyl-4-methyl-2-propyl-7-oxabicyclo[2.2.1]heptan-2-ol]
≥ 80%: inhibition at 1200 g/ha [1] | inhibition at 1200 g/ha [5] | inhibition at 75 g/ha [6] | inhibition at 1200 g/ha [10]

COC(=O)c1ccccc1CO[C@@H]1C[C@]2(C(C)C)O[C@@]1(C)C[C@@H]2Br [1-709, methyl 2-[[(1S,2R,4R,5S)-5-bromo-1-methyl-4-isopropyl-7-oxabicyclo[2.2.1]heptan-2-yl]oxymethyl]benzoate]
≥ 80%: inhibition at 1200 g/ha [5] | inhibition at 75 g/ha [6] | inhibition at 75 g/ha [7] | inhibition at 1200 g/ha [10]

COc1ccc(CO[C@@H]2C[C@]3(C(C)C)O[C@@]2(C)C[C@@H]3Br)cc1 [1-686, (1S,2R,4R,5S)-5-bromo-2-[(4-methoxyphenyl)methoxy]-1-methyl-4-isopropyl-7-oxabicyclo[2.2.1]heptane]
≥ 80%: inhibition at 1200 g/ha [5] | inhibition at 75 g/ha [6] | inhibition at 75 g/ha [7] | inhibition at 1200 g/ha [10]

CC(C)[C@]12C[C@@H](OCc3ccccc3C(=O)O)[C@](C)(C[C@@H]1Br)O2 [1-706, 2-[[(1S,2R,4R,5S)-5-bromo-1-methyl-4-isopropyl-7-oxabicyclo[2.2.1]heptan-2-yl]oxymethyl]benzoic acid]
≥ 80%: inhibition at 1200 g/ha [5] | inhibition at 75 g/ha [6] | inhibition at 75 g/ha [7] | inhibition at 1200 g/ha [10]

CC(C)C12CC(OCc3c(F)cccc3Br)C(C)(CC1Br)O2 (stereo not shown) [1-1598, 5-bromo-2-[(2-bromo-6-fluorophenyl)methoxy]-1-methyl-4-isopropyl-7-oxabicyclo[2.2.1]heptane]
≥ 80%: inhibition at 1200 g/ha [1] | inhibition at 75 g/ha [2] | inhibition at 1200 g/ha [3] | inhibition at 1200 g/ha [4] | inhibition at 75 g/ha [6] | inhibition at 75 g/ha [7] | inhibition at 75 g/ha [8] | inhibition at 75 g/ha [9] | inhibition at 1200 g/ha [10] | pest or weed control at 1200 g/ha [11] | inhibition at 75 g/ha [12]

Cc1cccc(C)c1CO[C@@H]1C[C@]2(C(C)C)O[C@@]1(C)C[C@@H]2Br [1-17, (1S,2R,4R,5S)-5-bromo-2-[(2,6-dimethylphenyl)methoxy]-1-methyl-4-isopropyl-7-oxabicyclo[2.2.1]heptane]
≥ 80%: inhibition at 1200 g/ha [1] | inhibition at 1200 g/ha [3] | inhibition at 1200 g/ha [4] | inhibition at 1200 g/ha [5] | inhibition at 75 g/ha [6] | inhibition at 1200 g/ha [10] | pest or weed control at 1200 g/ha [11] | inhibition at 75 g/ha [12]

CC(C)[C@]12C[C@@H](OCc3ccccc3C(F)(F)F)[C@](C)(C[C@@H]1Br)O2 [1-700, (1S,2R,4R,5S)-5-bromo-l-methyl-4-isopropyl-2-[[2-(trifluoromethyl)phenyl]methoxy]-7-oxabicyclo[2.2.1]heptane]
≥ 80%: weed inhibition rate [1] | weed inhibition rate [3] | weed inhibition rate [4] | weed inhibition rate [5] | weed inhibition rate [7] | weed inhibition rate [10] | weed inhibition rate [11]

COc1ccccc1CO[C@@H]1C[C@]2(C(C)C)O[C@@]1(C)C[C@@H]2Br [1-18, (1S,2R,4R,5S)-5-bromo-2-[(2-methoxyphenyl)methoxy]-1-methyl-4-isopropyl-7-oxabicyclo[2.2.1]heptane]
≥ 80%: inhibition at 1200 g/ha [1] | inhibition at 75 g/ha [2] | inhibition at 1200 g/ha [5] | inhibition at 75 g/ha [6] | inhibition at 75 g/ha [7] | inhibition at 1200 g/ha [10] | pest or weed control at 1200 g/ha [11] | inhibition at 75 g/ha [12]

CC(C)[C@@]12C[C@H](OCc3ccccc3F)[C@@](C)(C[C@H]1C)O2 [1-1221, (1R,2S,4S,5R)-2-[(2-fluorophenyl)methoxy]-1,5-dimethyl-4-isopropyl-7-oxabicyclo[2.2.1]heptane]
≥ 80%: inhibition at 1200 g/ha [5] | inhibition at 75 g/ha [7]
